In patent US20230285405A1, “Pharmaceuticals for Treating or Preventing Nidoviruses and Picornaviruses” (priority 2020, published 2023):
Structures can show the parent of a compound that is named as a salt. Where two headings read alike, the source gives them in different places.

Columns and labels:
A549-mRuby cells = experiment: Drug screening: effect on cell growth (cell number day 4 / day 0); settings: 10 μM drug; for Growth_1: number of cells at day 4 divided by number of cells at day 0 / toxic_1: repeat #1; for Growth_2: number of cells at day 4 divided by number of cells at day 0 / toxic_2: repeat #2
How it was run: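 Growth was scored as day 4/day 0 cell count from images of OC43-infected (MOI 0.3) A549-mRuby nuclear-reporter cells. Compounds were added at 10 μM final after a 1 h infection at 33° C, followed by 4 days of culture at 33° C in two independent screens.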

OC43 = experiment: Drug screening: OC43 nucleoprotein staining in infected A549-mRuby cells; type: cell-based, human beta coronavirus OC43
How it was run: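 Repurposing screen: drugs at 10 μM final added 1 h after OC43 infection (MOI 0.3) of H2B-mRuby A549 cells, 4-day incubation at 33° C. Cell counts imaged at day 0 and day 4; nucleoprotein staining per cell normalized to untreated infected wells, hit threshold >3 SD in duplicate screens, non-toxic.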

[1] = Betacoronavirus 1, OC43, 96 h, 10 μM drug, MOI 0.3, 4 days, OC43 staining normalized to no-drug controls, mean of the two screen repeats, read-out: OC43_mean
[2] = Betacoronavirus 1, OC43, 96 h, 10 μM drug, MOI 0.3, 4 days, normalized to no-drug controls in the same plate, repeat #1, read-out: OC43_1: % staining of OC43 in screen repeat #1
[3] = Betacoronavirus 1, OC43, 96 h, 10 μM drug, MOI 0.3, 4 days, normalized to no-drug controls in the same plate, repeat #2, read-out: OC43_2: % staining of OC43 in screen repeat #2
[4] = 10 μM drug, MOI 0.3, 4 days, OC43 staining normalized to no-drug controls, mean of the two screen repeats
[5] = 10 μM drug, MOI 0.3, 4 days, normalized to no-drug controls in the same plate, repeat #1
[6] = 10 μM drug, MOI 0.3, 4 days, normalized to no-drug controls in the same plate, repeat #2

Compound	Growth_1: number of cells at day 4 divided by number of cells at day 0 (A549-mRuby cells)	toxic_1 (A549-mRuby cells)	Growth_2: number of cells at day 4 divided by number of cells at day 0 (A549-mRuby cells)	toxic_2 (A549-mRuby cells)	hit_1 (OC43; 10 μM drug, repeat #1)	hit_2 (OC43; 10 μM drug, repeat #2)	activity at 10 µM (OC43; [1]) [%]	activity at 10 µM (OC43; [2]) [%]	activity at 10 µM (OC43; [3]) [%]	Growth_1: number of cells at day 4 divided by number of cells at day 0 (A549-mRuby cells; hydrochloride)	Growth_2: number of cells at day 4 divided by number of cells at day 0 (A549-mRuby cells; hydrochloride)	OC43_mean (OC43; [4]) [%]	OC43_1: % staining of OC43 in screen repeat #1 (OC43; [5]) [%]	OC43_2: % staining of OC43 in screen repeat #2 (OC43; [6]) [%]	activity at 10 µM (OC43; Betacoronavirus 1, OC43, 96 h, read-out: OC43_mean, 10 μM drug, MOI 0.3, 4 days, OC43 staining normalized to no-drug controls, mean of the two screen repeats) [%]	activity at 10 µM (OC43; Betacoronavirus 1, 96 h, 10 μM drug, MOI 0.3, 4 days, OC43 staining normalized to no-drug controls, mean of the two screen repeats, read-out: OC43_mean) [%]	activity at 10 µM (OC43; Betacoronavirus 1, OC43, 96 h, read-out: OC43_mean) [%]
CN1CCC(COc2cnc(-c3cccc(Cn4nc(-c5cccc(C#N)c5)ccc4=O)c3)nc2)CC1 [Tepotinib (EMD 1214063), Tepotinib]	5.3	0	5.2	0	1	1	28.9	15.3	42.6	–	–	–	–	–	–	–	–
COc1cc2ncnc(Nc3ccc(F)c(Cl)c3)c2cc1OCCCN1CCOCC1 [Gefitinib hydrochloride]	–	0	–	0	1	1	23.9	20	27.8	3.5	3.3	–	–	–	–	–	–
Pizotifen Malate	3.4	0	2.8	0	1	1	–	–	–	–	–	25.4	33.3	17.5	–	–	–
CCN(CCO)CCCC(C)Nc1ccnc2cc(Cl)ccc12 (stereo not drawn) [Hydroxychloroquine Sulfate]	5.1	0	4.9	0	1	1	16.2	17.8	14.6	–	–	–	–	–	–	–	–
CCCc1cc(=O)[nH]c(=S)[nH]1 [Propylthiouracil]	3.7	0	4.2	0	1	1	–	44.3	55.1	–	–	–	–	–	49.7	–	–
C=C[C@]1(C)C[C@@H](OC(=O)CSC(C)(C)CNC(=O)[C@H](N)C(C)C)[C@]2(C)[C@H](C)CC[C@]3(CCC(=O)[C@H]32)[C@@H](C)[C@@H]1O [Valnemulin HCl]	4.4	0	4.5	0	1	1	–	27.7	37.1	–	–	–	–	–	–	32.4	–
C#C[C@]1(O)CC[C@H]2[C@@H]3CCC4=CC(=O)CC[C@@H]4[C@H]3C(=C)C[C@@]21CC [Etonogestrel]	4.3	0	4.3	0	1	1	44.3	47.8	40.7	–	–	–	–	–	–	–	–
CS(=O)(=O)CCNCc1ccc(-c2ccc3ncnc(Nc4ccc(OCc5cccc(F)c5)c(Cl)c4)c3c2)o1.Cc1ccc(S(=O)(=O)O)cc1.Cc1ccc(S(=O)(=O)O)cc1 [Lapatinib (GW-572016) Ditosylate]	5.0	0	5.9	0	1	1	–	–	–	–	–	24.8	17.6	32.0	–	–	–
CC1(C)O[C@@H]2C[C@H]3[C@@H]4C[C@H](F)C5=CC(=O)C=C[C@]5(C)[C@@]4(F)[C@@H](O)C[C@]3(C)[C@]2(C(=O)CO)O1 [Fluocinolone Acetonide]	3.5	0	4.0	0	1	1	45.5	38.9	52.2	–	–	–	–	–	–	–	–
CN(C)CCCN1c2ccccc2Sc2ccccc21 [Promazine hydrochloride]	4.7	0	4.7	0	1	1	23	23.4	22.6	–	–	–	–	–	–	–	–
CC[C@H]1OC(=O)[C@H](C)[C@@H](O[C@H]2C[C@@](C)(OC)[C@@H](O)[C@H](C)O2)[C@H](C)[C@@H](O[C@@H]2O[C@H](C)C[C@H](N(C)C)[C@H]2O)[C@](C)(O)C[C@@H](C)/C(=N\OCOCCOC)[C@H](C)[C@@H](O)[C@]1(C)O [Roxithromycin]	5.2	0	5.6	0	1	1	41.4	55.8	27.1	–	–	–	–	–	–	–	–
CN(C)CCCN1c2ccccc2CCc2ccc(Cl)cc21.O [Clomipramine HCl]	2.6	0	3.8	0	1	1	–	13.9	21.6	–	–	–	–	–	–	–	17.7
O=C(O[C@H]1CN2CCC1CC2)N1CCc2ccccc2[C@@H]1c1ccccc1 [Solifenacin]	4.3	0	3.4	0	1	1	25	20.4	29.6	–	–	–	–	–	–	–	–
